Reference: US8278345B2, “Inhibitors of glutaminyl cyclase” (Probiodrug AG, priority 2006, dated 2012)

Target: hQC (Homo sapiens, UniProt Q16769)
Assay: Inhibitor assay for glutaminyl cyclase activity (fluorometric, H-Gln-βNA / H-Gln-AMC)
Format: biochemical
Details: compound from preparative synthesis, purified; read-out: IC50 hQC
Summary of the method: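 Ki values came from fitting progress curves to a competitive inhibition model; rapid screens used 4 mM inhibitor with substrate at KM. QC activity was read at 30 °C via auxiliary pyroglutamyl aminopeptidase releasing βNA (0.2 mM H-Gln-βNA, 0.2 M Tris pH 8.0, 20 mM EDTA) or AMC (0.05 M Tris pH 8.0, 5 mM EDTA).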

hQC, sequence (Q16769 29-361): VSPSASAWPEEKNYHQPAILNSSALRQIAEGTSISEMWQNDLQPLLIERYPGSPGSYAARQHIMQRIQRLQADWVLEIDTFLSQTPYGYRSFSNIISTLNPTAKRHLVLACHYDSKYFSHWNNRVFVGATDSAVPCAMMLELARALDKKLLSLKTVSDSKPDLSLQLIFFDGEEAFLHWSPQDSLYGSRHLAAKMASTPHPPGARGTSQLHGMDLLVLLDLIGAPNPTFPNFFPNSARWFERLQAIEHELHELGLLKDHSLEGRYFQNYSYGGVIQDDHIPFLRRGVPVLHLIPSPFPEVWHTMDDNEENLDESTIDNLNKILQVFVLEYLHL

IC50 [µM]	SMILES
0.088	COc1ccc(C2C(c3ccc(O)cc3)=C(O)C(=O)N2CCCn2ccnc2)cc1 (centres unmarked) [Compound 156, 3-Hydroxy-4-(4-hydroxy-phenyl)-1-(3-imidazol-1-yl-propyl)-5-(4-methoxy-phenyl)-1,5-dihydro-pyrrol-2-one]
1.96	O=C1C(O)=C(c2ccccc2)C(c2cccc(O)c2)N1CCCn1ccnc1 (centres unmarked) [Compound 112, 3-Hydroxy-5-(3-hydroxy-phenyl)-1-(3-imidazol-1-yl-propyl)-4-phenyl-1,5-dihydro-pyrrol-2-one]
0.0087	CC(=O)C1=C(O)C(=O)N(c2ccc3[nH]cnc3c2)C1c1ccc2nsnc2c1 (centres unmarked) [Compound 376, 4-Acetyl-1-(1H-benzoimidazol-5-yl)-5-benzo[c][1,2,5]thiadiazol-5-yl-3-hydroxy-1,5-dihydro-pyrrol-2-one]
0.575	O=C1C(O)=C(c2c[nH]c3ccccc23)C(c2cnc3ccccc3c2)N1c1ccc2[nH]cnc2c1 (centres unmarked) [Compound 422, 1-(1H-Benzoimidazol-5-yl)-3-hydroxy-4-(1H-indol-3-yl)-5-quinolin-3-yl-1,5-dihydro-pyrrol-2-one]

Same assay, conditions: read-out: IC50

IC50 [µM]	SMILES
0.04	CCCCCC1=C(O)C(=O)N(CCCn2ccnc2)C1c1ccccc1 (centres unmarked) [Compound 199, 3-Hydroxy-1-(3-imidazol-1-yl-propyl)-4-pentyl-5-phenyl-1,5-dihydro-pyrrol-2-one]
0.4	CCC1=C(O)C(=O)N(CCCn2ccnc2)C1c1ccc(C)cc1 (centres unmarked) [Compound 221, 4-Ethyl-3-hydroxy-1-(3-imidazol-1-yl-propyl)-5-p-tolyl-1,5-dihydro-pyrrol-2-one]
0.004	CC(=O)C1=C(O)C(=O)N(c2ccc3[nH]cnc3c2)C1c1ccc(CO)o1 (centres unmarked) [Compound 352, 4-Acetyl-1-(1H-benzoimidazol-5-yl)-3-hydroxy-5-(5-hydroxymethyl-furan-2-yl)-1,5-dihydro-pyrrol-2-one]
1.03	CC1=C(O)C(=O)N(c2ccc3[nH]cnc3c2)C1c1ccc2nsnc2c1 (centres unmarked) [Compound 380, 1-(1H-Benzoimidazol-5-yl)-5-benzo[c][1,2,5]thiadiazol-5-yl-3-hydroxy-4-methyl-1,5-dihydro-pyrrol-2-one]
1.3	CC1C(c2ccccc2)=C(O)C(=O)N1CCCn1ccnc1 (centres unmarked) [Compound 90, 3-Hydroxy-1-(3-imidazol-1-yl-propyl)-5-methyl-4-phenyl-1,5-dihydro-pyrrol-2-one]
0.4	O=C1C(O)=C(c2ccccc2)C(C2CC2)N1CCCn1ccnc1 (centres unmarked) [Compound 105, 5-Cyclopropyl-3-hydroxy-1-(3-imidazol-1-yl-propyl)-4-phenyl-1,5-dihydro-pyrrol-2-one]
1.21	CC(=O)C1=C(O)C(=O)N(c2ccc3[nH]cnc3c2)C1c1cc[n+]([O-])cc1 (centres unmarked) [Compound 397, 4-Acetyl-1-(1H-benzoimidazol-5-yl)-3-hydroxy-5-(1-oxy-pyridin-4-yl)-1,5-dihydro-pyrrol-2-one]
6.88	O=C1C(O)=C(c2ccccc2)C(c2ccc(N3CCCC3)cc2)N1c1ccc2[nH]cnc2c1 (centres unmarked) [Compound 309, 1-(1H-Benzoimidazol-5-yl)-3-hydroxy-4-phenyl-5-(4-pyrrolidin-1-yl-phenyl)-1,5-dihydro-pyrrol-2-one]
3.1	CC1=C(O)C(=O)N(CCCn2ccnc2)C1c1cccs1 (centres unmarked) [Compound 45, 3-Hydroxy-1-(3-imidazol-1-yl-propyl)-4-methyl-5-thiophen-2-yl-1,5-dihydro-pyrrol-2-one]
0.4	O=C1C(O)=C(c2ccc(O)cc2)C(CO)N1CCCn1ccnc1 (centres unmarked) [Compound 174, 3-Hydroxy-5-hydroxymethyl-4-(4-hydroxy-phenyl)-1-(3-imidazol-1-yl-propyl)-1,5-dihydro-pyrrol-2-one]
0.4	CCCCCC1=C(O)C(=O)N(CCCn2ccnc2)C1c1ccccn1 (centres unmarked) [Compound 208, 3-Hydroxy-1-(3-imidazol-1-yl-propyl)-4-pentyl-5-pyridin-2-yl-1,5-dihydro-pyrrol-2-one]
2.2	CC(C)/C=C/C1C(c2ccc(O)cc2)=C(O)C(=O)N1CCCn1ccnc1 (centres unmarked) [Compound 153, 3-Hydroxy-4-(4-hydroxy-phenyl)-1-(3-imidazol-1-yl-propyl)-5-(3-methyl-but-1-enyl)-1,5-dihydro-pyrrol-2-one]
2.2	CCCC(=O)C1=C(O)C(=O)N(c2ccc3[nH]cnc3c2)C1C1CC1 (centres unmarked) [Compound 449, 1-(1H-Benzoimidazol-5-yl)-4-butyryl-5-cyclopropyl-3-hydroxy-1,5-dihydro-pyrrol-2-one]
2.2	CCC1=C(O)C(=O)N(CCCn2ccnc2)C1c1ccc(C)o1 (centres unmarked) [Compound 227, 4-Ethyl-3-hydroxy-1-(3-imidazol-1-yl-propyl)-5-(5-methyl-furan-2-yl)-1,5-dihydro-pyrrol-2-one]
8.59	CCCC(=O)C1=C(O)C(=O)N(c2ccc3[nH]cnc3c2)C1c1c[nH]c2ccccc12 (centres unmarked) [Compound 268, 1-(1H-Benzoimidazol-5-yl)-4-butyryl-3-hydroxy-5-(1H-indol-3-yl)-1,5-dihydro-pyrrol-2-one]
9.85	CC1=C(O)C(=O)N(c2ccc3[nH]cnc3c2)C1c1ccc(Cl)c(C(F)(F)F)c1 (centres unmarked) [Compound 460, 1-(1H-Benzoimidazol-5-yl)-5-(4-chloro-3-trifluoromethyl-phenyl)-3-hydroxy-4-methyl-1,5-dihydro-pyrrol-2-one]
4.36	CCC1=C(O)C(=O)N(c2ccc3[nH]cnc3c2)C1c1cc(Cl)ccc1O (centres unmarked) [Compound 276, 1-(1H-Benzoimidazol-5-yl)-5-(5-chloro-2-hydroxy-phenyl)-4-ethyl-3-hydroxy-1,5-dihydro-pyrrol-2-one]
0.04	COc1ccc(C2C(c3ccc(O)cc3)=C(O)C(=O)N2CCCn2ccnc2)cc1 (centres unmarked) [Compound 156, 3-Hydroxy-4-(4-hydroxy-phenyl)-1-(3-imidazol-1-yl-propyl)-5-(4-methoxy-phenyl)-1,5-dihydro-pyrrol-2-one]
0.4	CCC1C(c2c[nH]c3ccccc23)=C(O)C(=O)N1CCCn1ccnc1 (centres unmarked) [Compound 142, 5-Ethyl-3-hydroxy-1-(3-imidazol-1-yl-propyl)-4-(1H-indol-3-yl)-1,5-dihydro-pyrrol-2-one]

IC50 [µM]	SMILES
0.4	O=C1C(O)=C(c2ccccc2)C(c2cccc(O)c2)N1CCCn1ccnc1 (centres unmarked) [Compound 112, 3-Hydroxy-5-(3-hydroxy-phenyl)-1-(3-imidazol-1-yl-propyl)-4-phenyl-1,5-dihydro-pyrrol-2-one]
0.4	O=C1C(O)=C(c2ccccc2)C(c2ccc(O)cc2)N1CCCn1ccnc1 (centres unmarked) [Compound 111, 3-Hydroxy-5-(4-hydroxy-phenyl)-1-(3-imidazol-1-yl-propyl)-4-phenyl-1,5-dihydro-pyrrol-2-one]
2.2	Cc1ccc(C2C(c3cccc(O)c3)=C(O)C(=O)N2CCCn2ccnc2)cc1 (centres unmarked) [Compound 5, 3-Hydroxy-4-(3-hydroxy-phenyl)-1-(3-imidazol-1-yl-propyl)-5-p-tolyl-1,5-dihydro-pyrrol-2-one]
0.04	O=C1C(O)=C(c2ccc(O)cc2)C(c2c[nH]c3ccccc23)N1CCCn1ccnc1 (centres unmarked) [Compound 167, 3-Hydroxy-4-(4-hydroxy-phenyl)-1-(3-imidazol-1-yl-propyl)-5-(1H-indol-3-yl)-1,5-dihydro-pyrrol-2-one]
2.2	CC(C)C1=C(O)C(=O)N(CCCn2ccnc2)C1C1=CCCCC1 (centres unmarked) [Compound 67, 5-Cyclohex-1-enyl-3-hydroxy-1-(3-imidazol-1-yl-propyl)-4-isopropyl-1,5-dihydro-pyrrol-2-one]
0.004	CC(C)C1=C(O)C(=O)N(c2ccc3[nH]cnc3c2)C1C1COC(C)(C)O1 (centres unmarked) [Compound 300, 1-(1H-Benzoimidazol-5-yl)-5-(2,2-dimethyl-[1,3]dioxolan-4-yl)-3-hydroxy-4-isopropyl-1,5-dihydro-pyrrol-2-one]
0.004	CC(=O)C1=C(O)C(=O)N(c2ccc3[nH]cnc3c2)C1c1ccc2nsnc2c1 (centres unmarked) [Compound 376, 4-Acetyl-1-(1H-benzoimidazol-5-yl)-5-benzo[c][1,2,5]thiadiazol-5-yl-3-hydroxy-1,5-dihydro-pyrrol-2-one]
0.4	O=C1C(O)=C(c2ccccc2)C(c2c(O)ccc3ccccc23)N1CCCn1ccnc1 (centres unmarked) [Compound 100, 3-Hydroxy-5-(2-hydroxy-naphthalen-1-yl)-1-(3-imidazol-1-yl-propyl)-4-phenyl-1,5-dihydro-pyrrol-2-one]
0.4	O=C1C(O)=C(c2c[nH]c3ccccc23)C(c2ccc(CO)o2)N1CCCn1ccnc1 (centres unmarked) [Compound 126, 3-Hydroxy-5-(5-hydroxymethyl-furan-2-yl)-1-(3-imidazol-1-yl-propyl)-4-(1H-indol-3-yl)-1,5-dihydro-pyrrol-2-one]
2.2	CCCC(=O)C1=C(O)C(=O)N(c2ccc3[nH]cnc3c2)C1c1nccs1 (centres unmarked) [Compound 254, 1-(1H-Benzoimidazol-5-yl)-4-butyryl-3-hydroxy-5-thiazol-2-yl-1,5-dihydro-pyrrol-2-one]
1.57	O=C(C1=C(O)C(=O)N(c2ccc3[nH]cnc3c2)C1c1ccc(CO)o1)c1cccs1 (centres unmarked) [Compound 369, 1-(1H-Benzoimidazol-5-yl)-3-hydroxy-5-(5-hydroxymethyl-furan-2-yl)-4-(thiophene-2-carbonyl)-1,5-dihydro-pyrrol-2-one]
3.19	Cc1cc(C2C(C(C)C)=C(O)C(=O)N2c2ccc3[nH]cnc3c2)oc1C (centres unmarked) [Compound 388, 1-(1H-Benzoimidazol-5-yl)-5-(4,5-dimethyl-furan-2-yl)-3-hydroxy-4-isopropyl-1,5-dihydro-pyrrol-2-one]
1.3	CC1=C(O)C(=O)N(CCCn2ccnc2)C1Cc1ccccc1 (centres unmarked) [Compound 41, 5-Benzyl-3-hydroxy-1-(3-imidazol-1-yl-propyl)-4-methyl-1,5-dihydro-pyrrol-2-one]
0.004	CC1=C(O)C(=O)N(c2ccc3[nH]cnc3c2)C1c1ccco1 (centres unmarked) [Compound 426, 1-(1H-Benzoimidazol-5-yl)-5-furan-2-yl-3-hydroxy-4-methyl-1,5-dihydro-pyrrol-2-one]
0.94	CCCCCC1=C(O)C(=O)N(c2ccc3[nH]cnc3c2)C1c1ccccc1F (centres unmarked) [Compound 325, 1-(1H-Benzoimidazol-5-yl)-5-(2-fluoro-phenyl)-3-hydroxy-4-pentyl-1,5-dihydro-pyrrol-2-one]
2.2	CCC1=C(O)C(=O)N(CCCn2ccnc2)C1c1cc(Cl)cc(Cl)c1O (centres unmarked) [Compound 220, 5-(3,5-Dichloro-2-hydroxy-phenyl)-4-ethyl-3-hydroxy-1-(3-imidazol-1-yl-propyl)-1,5-dihydro-pyrrol-2-one]
1.3	CCC1=C(O)C(=O)N(CCCn2ccnc2)C1c1cc[nH]n1 (centres unmarked) [Compound 224, 4-Ethyl-3-hydroxy-1-(3-imidazol-1-yl-propyl)-5-(1H-pyrazol-3-yl)-1,5-dihydro-pyrrol-2-one]
0.004	O=C1C(O)=C(c2c[nH]c3ccccc23)C(c2cnc3ccccc3c2)N1c1ccc2[nH]cnc2c1 (centres unmarked) [Compound 422, 1-(1H-Benzoimidazol-5-yl)-3-hydroxy-4-(1H-indol-3-yl)-5-quinolin-3-yl-1,5-dihydro-pyrrol-2-one]
